Where a SMILES comes first, the peptide text is derived from it. The star is where a group is joined. Palmitoyl = CCCCCCCCCCCCCCCC(=O)*
Legend:
[1] = system: type I collagen; test: Stimulation of type I collagen synthesis in ex vivo human skin fragments (immunofluorescence, semi-quantification); type: cell-based; conditions: skin explants (n=5)
Experimental: Example 2: Evaluation of collagen synthesis stimulation in human skin fragments.
Skin explants (n=5) obtained from a surgical procedure performed by the ophthalmologic plastic surgery clinic were treated for 72 h with a formulation containing the peptide SEQ ID No. 1 ( Pal - Gln - His- Trp - Val-OH ) (at 50 ppm or 100 ppm ) and with the same formulation without the addition of the peptide (placebo). After incubation with the test products as described above, the skin fragments were fixed in 4% paraformaldehyde (pH 7.4) for 24 h. After fixation, the material was transferred to a 30% sucrose solution for cryopreservation and then embedded in tissue freezing medium, followed by serial sections of approximately 10 µm thickness made by cryostat and collected directly on silanized glass slides. The skin sections were then subjected to the specific labeling process for type I collagen for subsequent immunofluorescence analysis; the records were obtained using a fluorescence optical microscope coupled to a photographic camera.

[2] = system: melanin synthesis in human skin fragments; test: Inhibition of melanin synthesis in ex vivo human skin fragments (Fontana Masson staining, semi-quantification); type: cell-based; conditions: skin explants (n=5), 72h
Experimental: Example 1: Evaluation of inhibition of melanin synthesis in human skin fragments.
Skin explants (n=5), obtained from a surgical procedure performed by an ophthalmological plastic surgery clinic, were treated for 72h with a formulation containing the peptide SEQ ID No. 1 (Pal-Gln-His-Trp-Val-OH), (at 50 ppm or 100 ppm) and with the same formulation without the addition of the peptide (placebo).
After incubation with the test products as described above, the skin fragments were fixed in 4% paraformaldehyde (pH 7.4) for 24 hours. After fixation, the material was transferred to 30% sucrose solution for cryopreservation and then embedded in tissue freezing medium, followed by serial sections of approximately 10 µm thickness made by cryostat and collected directly on silanized glass slides. Then, the skin sections were stained by the Fontana Masson technique.
Subsequently, the slides were analyzed and recorded using an optical microscope coupled to a camera.

CCCCCCCCCCCCCCCC(=O)N[C@@H](CCC(N)=O)C(=O)N[C@@H](Cc1cnc[nH]1)C(=O)N[C@@H](Cc1c[nH]c2ccccc12)C(=O)N[C@H](C(=O)O)C(C)C [SEQ ID No. 1, Pal-Gln-His-Trp-Val-OH] (Palmitoyl-QHWV-OH)
stimulated collagen I production compared to the placebo group ([1]; 50 ppm peptide in formulation, 72h): 63% | increase in protein synthesis compared to the levels observed in the placebo group ([1]; 100 ppm peptide in formulation, 72 h, protein = type I collagen): 71% | reduces melanin production compared to the placebo group ([2]; 50 ppm peptide in formulation): 66% | inhibits pigment synthesis compared to the levels observed in the placebo group ([2]; 100 ppm peptide in formulation): 61%
